Assay results: patent US10363251B2, “(+)-morphinans as antagonists of toll-like receptor 9 and therapeutic uses thereof” (Mallinckrodt LLC, priority 2009, dated 2019)

Molecular target: T1, TLR9 (Homo sapiens, UniProt Q9NR96)
T1 construct: expressed in transfected cells; host or cells: HEK293
T1 sequence (Q9NR96 26-1032): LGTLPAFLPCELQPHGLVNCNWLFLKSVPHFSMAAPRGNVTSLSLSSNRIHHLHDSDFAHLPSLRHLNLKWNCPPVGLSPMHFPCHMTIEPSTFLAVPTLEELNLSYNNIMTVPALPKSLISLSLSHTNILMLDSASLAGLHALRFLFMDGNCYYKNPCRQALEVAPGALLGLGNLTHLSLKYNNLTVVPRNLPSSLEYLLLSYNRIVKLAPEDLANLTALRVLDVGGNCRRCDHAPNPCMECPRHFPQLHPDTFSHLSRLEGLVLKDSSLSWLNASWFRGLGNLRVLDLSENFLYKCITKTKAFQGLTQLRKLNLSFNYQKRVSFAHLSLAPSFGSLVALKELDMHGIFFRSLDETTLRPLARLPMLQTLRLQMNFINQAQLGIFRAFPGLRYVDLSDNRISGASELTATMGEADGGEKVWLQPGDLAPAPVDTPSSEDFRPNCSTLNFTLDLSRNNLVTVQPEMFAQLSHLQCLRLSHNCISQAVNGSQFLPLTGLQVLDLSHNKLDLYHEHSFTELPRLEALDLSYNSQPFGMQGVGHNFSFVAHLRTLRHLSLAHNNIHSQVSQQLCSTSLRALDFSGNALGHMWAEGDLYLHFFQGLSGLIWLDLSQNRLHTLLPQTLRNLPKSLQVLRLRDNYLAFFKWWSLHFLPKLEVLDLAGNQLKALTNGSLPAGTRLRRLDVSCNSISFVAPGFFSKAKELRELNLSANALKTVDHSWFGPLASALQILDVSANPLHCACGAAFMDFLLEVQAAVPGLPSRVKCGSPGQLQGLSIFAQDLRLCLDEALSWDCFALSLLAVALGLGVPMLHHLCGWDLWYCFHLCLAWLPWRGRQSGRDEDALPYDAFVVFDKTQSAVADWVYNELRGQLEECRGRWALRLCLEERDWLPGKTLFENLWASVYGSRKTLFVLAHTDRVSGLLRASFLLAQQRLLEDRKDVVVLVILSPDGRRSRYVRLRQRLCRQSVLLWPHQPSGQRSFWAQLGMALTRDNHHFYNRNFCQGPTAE
Experiment: TLR9 screening of (+)-morphinan library, SEAP reporter in HEK293 cells expressing TLR9
Assay type: cell-based
Settings: activator ODN2006; for OD 650 nm (mean ± sd): control (no activator) 0.14, activator 1.42 OD
Outline: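 HEK293 cells expressing TLR9 with an NF-κB-inducible SEAP reporter were preincubated with compound at 10 μM and 100 nM for 30 min at 37 °C, then stimulated with ODN2006. SEAP was read as OD 650 nm after 16-20 h, in triplicate.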

CN[C@@H]1CC[C@]2(O)[C@@H]3Cc4ccc(O)c5c4[C@]2(CCN3CC2CC2)[C@@H]1O5 [II-78]
OD 650 nm (mean ± sd) (100 nM): 0.14 ± 0.02 OD | OD 650 nm (mean ± sd) (10 μM): 0.11 ± 0.01 OD | inhibition at 0.1 µM (HEK293, read-out: % Inhibition (mean), 100 nM): 90% | inhibition at 10 µM (HEK293, read-out: % Inhibition (mean), 10 μM): 92%
